Results published in ChEMBL document CHEMBL2424648, “Carbonic anhydrase inhibitors: synthesis and inhibition of the human carbonic anhydrase isoforms I, II, VII, IX and XII with benzene sulfonamides incorporating 4,5,6,7-tetrabromophthalimide moiety” (Bioorg Med Chem, 2013).

Key:
Carbonic anhydrase 12 = Carbonic anhydrase 12 (Homo sapiens, UniProt O43570)
Carbonic anhydrase 1 = Carbonic anhydrase 1 (Homo sapiens, UniProt P00915)
Carbonic anhydrase 9 = Carbonic anhydrase 9 (Homo sapiens, UniProt Q16790)
Carbonic anhydrase 2 = Carbonic anhydrase 2 (Homo sapiens, UniProt P00918)

Sequence of Carbonic anhydrase 1 (P00915 whole entry): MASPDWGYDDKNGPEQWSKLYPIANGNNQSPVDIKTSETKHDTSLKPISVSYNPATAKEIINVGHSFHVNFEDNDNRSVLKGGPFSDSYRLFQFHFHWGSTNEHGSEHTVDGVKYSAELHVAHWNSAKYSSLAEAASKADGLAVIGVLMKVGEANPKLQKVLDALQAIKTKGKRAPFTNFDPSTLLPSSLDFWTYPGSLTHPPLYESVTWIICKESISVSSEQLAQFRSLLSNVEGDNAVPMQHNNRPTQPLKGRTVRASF
Sequence of Carbonic anhydrase 12 (O43570 whole entry): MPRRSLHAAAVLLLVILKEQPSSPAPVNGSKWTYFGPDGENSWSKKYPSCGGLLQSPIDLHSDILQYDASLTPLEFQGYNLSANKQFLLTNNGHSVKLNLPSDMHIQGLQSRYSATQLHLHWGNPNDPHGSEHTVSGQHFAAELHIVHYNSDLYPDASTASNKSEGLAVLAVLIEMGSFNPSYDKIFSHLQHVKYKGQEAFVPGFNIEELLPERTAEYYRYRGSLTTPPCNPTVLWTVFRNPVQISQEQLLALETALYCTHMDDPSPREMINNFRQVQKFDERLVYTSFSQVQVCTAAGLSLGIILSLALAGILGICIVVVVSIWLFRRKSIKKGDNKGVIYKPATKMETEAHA

In the case of `NS(=O)(=O)c1ccc(CCNC(=S)Nc2ccc(-c3c4ccc(=O)cc-4oc4cc(O)ccc34)c(C(=O)O)c2)cc1`, the Ki (Carbonic anhydrase 12) is reported as 0.005 µM.

`NS(=O)(=O)c1cccc(N2C(=O)c3c(Br)c(Br)c(Br)c(Br)c3C2=O)c1` gave a Ki (Carbonic anhydrase 1) of 0.34 µM and a Ki (Carbonic anhydrase 12) of 0.019 µM.

In the case of `NS(=O)(=O)c1ccccc1N1C(=O)c2c(Br)c(Br)c(Br)c(Br)c2C1=O`, the Ki (Carbonic anhydrase 1) is reported as over 10 µM, the Ki (Carbonic anhydrase 9) is reported as 0.234 µM and the Ki (Carbonic anhydrase 12) is reported as 0.197 µM. For the same compound, the Ki (Carbonic anhydrase 2) was 0.19 µM.

Compound `NS(=O)(=O)c1ccc(N2C(=O)c3c(Br)c(Br)c(Br)c(Br)c3C2=O)c(F)c1` has a Ki (Carbonic anhydrase 1) of 0.77 µM, a Ki (Carbonic anhydrase 9) of 0.0094 µM and a Ki (Carbonic anhydrase 12) of 0.0075 µM. It also gave a Ki (Carbonic anhydrase 2) of 0.096 µM.

Compound `NS(=O)(=O)c1ccc(N2C(=O)c3c(Br)c(Br)c(Br)c(Br)c3C2=O)c(Cl)c1` has a Ki (Carbonic anhydrase 1) of 0.208 µM, a Ki (Carbonic anhydrase 9) of 0.0085 µM and a Ki (Carbonic anhydrase 12) of 0.0059 µM. For the same compound, the Ki (Carbonic anhydrase 2) was 0.055 µM.

Compound `NS(=O)(=O)c1ccc(N2C(=O)c3c(Br)c(Br)c(Br)c(Br)c3C2=O)c(Br)c1` has a Ki (Carbonic anhydrase 1) of 0.143 µM, a Ki (Carbonic anhydrase 9) of 0.0088 µM and a Ki (Carbonic anhydrase 12) of 0.0065 µM. The Ki (Carbonic anhydrase 2) was 0.047 µM.

In the case of `NS(=O)(=O)c1ccc(N2C(=O)c3c(Br)c(Br)c(Br)c(Br)c3C2=O)cc1`, the Ki (Carbonic anhydrase 1) is reported as 0.432 µM, the Ki (Carbonic anhydrase 9) is reported as 0.0091 µM and the Ki (Carbonic anhydrase 12) is reported as 0.0061 µM. For the same compound, the Ki (Carbonic anhydrase 2) was 0.068 µM.

In the case of `NS(=O)(=O)c1ccc(CN2C(=O)c3c(Br)c(Br)c(Br)c(Br)c3C2=O)cc1`, the Ki (Carbonic anhydrase 1) is reported as 0.251 µM, the Ki (Carbonic anhydrase 9) is reported as 0.0123 µM and the Ki (Carbonic anhydrase 12) is reported as 0.0123 µM.

Work on `NS(=O)(=O)c1ccc(CCN2C(=O)c3c(Br)c(Br)c(Br)c(Br)c3C2=O)cc1` yielded a Ki (Carbonic anhydrase 9) of 0.0159 µM and a Ki (Carbonic anhydrase 12) of 0.0102 µM.
